{"source": "patent US20170304228A1", "about": "“NEW INDICATION OF CINACALCET HCL PHARMACEUTICAL COMPOSITION FOR TREATING CANCER” (LAUNX BIOMEDICAL CO., LTD., priority 2014, published 2017)", "format_in_all_cases": "cell-based", "key": {"PC-3": {"system": "PC-3", "experiment": "Cell viability analysis (WST-1), PC-3", "conditions": "Homo sapiens, read-out: survival rate (viability) of cells", "procedure": "(§1) The cell numbers were counted and reseed as 2×10^6 in culture plate/flask. Then, the culture medium were added to a volume of 10 ml, and the cells were cultured for 2-3 days. Then, the cells were suspended for loading into 96-well plates. The number of cells was 3000 and the volume of the culture medium was 100 μl each well.\n(§2) Removing the original culture medium from 96-well plate. Then add 100 μl of commercially drug at a concentration of 10 μM per well. After 72 hours, add the diluted WST-1 reagent to the well with 100 μl/well, and the diluted WST-1 reagent was acquired from the dilution of 9:1 medium and WST-1 stock reagent. Finally, the total volume of each well was 200 μl/well. Culture the 96-well plate at 37° C. for 30 to 90 minutes. Detecting and calculate the survival rate of each cancer cells with an ELISA reader at OD450 nm. The lower viability of cancer cells represents better inhibition effect via the Cinacalcet HCl drug. Otherwise, the higher viability of cancer cells represents worse inhibition effect via the Cinacalcet HCl drug.\n(§3) This inhibition test of Cinacalcet HCl on endocrine-related cancer cells were using prostate cancer cell lines PC-3 and LNCap (Table 6), breast cancer cell lines MCF7 and MDA-MB-231 (Table 7), and ovarian cancer cell lines NIH-OVCAR-3 and TOV-21G (Table 8). The inhibitory tests of Cinacalcet HCl were performed 4 times for each cell lines and then the average value of the inhibitory tests was calculated."}, "HCT116-wt": {"system": "HCT116-wt", "experiment": "Cell viability analysis (WST-1), HCT116-wt", "conditions": "read-out: survival rate (viability) of cells", "procedure": "as §1, §2\n(§4) This inhibition test of Cinacalcet HCl on gastrointestinal tract-related cancer cells were using gastric cancer cell lines AGS and MKN-45 (Table 9), hepatic cancer cell lines HepG2 and Hep3B (Table 10), colorectal cancer cell lines HCT116-wt and LoVo (Table 11), pancreatic cancer cell line AsPC-1 and BxPC-3(Table 12), tongue cancer cell line SAS (Table 13). The inhibitory tests of Cinacalcet HCl were performed 4 times for each cell lines and then the average value of the inhibitory tests was calculated."}, "gastric cancer cells": {"system": "gastric cancer cells", "experiment": "Summary of cell viability, gastric cancer cells", "conditions": "72 hours, read-out: Inhibitory effect", "procedure": "as §1, §2\n(§5) Cinacalcet HCl is having different inhibitory effect on different tumor cell type even in the same cancer. […] (FIG. 1)"}, "lung cancer cells": {"system": "lung cancer cells", "experiment": "Summary of cell viability, lung cancer cells", "conditions": "72 hours, read-out: Inhibitory effect", "procedure": "as §1, §2, §5"}, "A375": {"system": "A375", "experiment": "Cell viability analysis (WST-1), A375", "conditions": "Homo sapiens, read-out: survival rate (viability) of cells", "procedure": "as §1, §2\nThis inhibition test of Cinacalcet HCl on other cancer cells were using osteosarcoma cell line U2OS (Table 14), skin cancer cell lines A375 and BCC (Table 15). The inhibitory tests of Cinacalcet HCl were performed 4 times for each cell lines and then the average value of the inhibitory tests was calculated."}, "HepG2": {"system": "HepG2", "experiment": "Cell viability analysis (WST-1), HepG2", "conditions": "Homo sapiens, read-out: survival rate (viability) of cells", "procedure": "as §1, §2, §4"}, "various cancer cells": {"system": "various cancer cells", "experiment": "Inhibitory effect on various cancer cells", "conditions": "FIG. 1", "procedure": "as §2, §5"}, "bladder cancer cells": {"system": "bladder cancer cells", "experiment": "Summary of cell viability, bladder cancer cells", "conditions": "72 hours, read-out: Inhibitory effect", "procedure": "as §1, §2, §5"}, "breast cancer cells": {"system": "breast cancer cells", "experiment": "Summary of cell viability, breast cancer cells", "conditions": "72 hours, read-out: Inhibitory effect", "procedure": "as §1, §2, §5"}, "H1650": {"system": "H1650", "experiment": "Cell viability analysis (WST-1), H1650", "conditions": "Homo sapiens, read-out: survival rate (viability) of cells", "procedure": "as §1\nas §2, with “Culture the 96-well plate at 37° C. for 30 to 90 minutes.” left out\nThis inhibition test of Cinacalcet HCl on pleural-related cancer cells were using two lung cancer cell lines A549 and H1650. The inhibitory tests of Cinacalcet HCl were performed 4 times for each cell lines and then the average value of the inhibitory tests was calculated."}, "hepatic cancer cells": {"system": "hepatic cancer cells", "experiment": "Summary of cell viability, hepatic cancer cells", "conditions": "72 hours, read-out: Inhibitory effect", "procedure": "as §1, §2, §5"}, "AGS": {"system": "AGS", "experiment": "Cell viability analysis (WST-1), AGS", "conditions": "Homo sapiens, read-out: survival rate (viability) of cells", "procedure": "as §1, §2, §4"}, "MDA-MB-231": {"system": "MDA-MB-231", "experiment": "Cell viability analysis (WST-1), MDA-MB-231", "conditions": "Homo sapiens, read-out: survival rate (viability) of cells", "procedure": "as §1, §2, §3"}, "C-33A": {"system": "C-33A", "experiment": "Cell viability analysis (WST-1), C-33A", "conditions": "Homo sapiens, read-out: survival rate (viability) of cells", "procedure": "as §1, §2\nThis inhibition test of Cinacalcet HCl on abdominal-related cancer cells were using bladder cancer cell line TSGH and T24 (Table 3), cervical cancer cell lines HeLa and C-33A (Table 4), renal cancer cell line 786-O (Table 5). The inhibitory tests of Cinacalcet HCl were performed 4 times for each cell lines and then the average value of the inhibitory tests was calculated."}}, "note": "Counter-ions that a name gives are not always drawn. Like-named read-outs stand apart in the source and are kept apart here."}
{"compound": "C[C@@H](NCCCc1cccc(C(F)(F)F)c1)c1cccc2ccccc12", "note": "[Cinacalcet HCl, Cinacalcet hydrochloride]", "values": [{"measurement": "viability at 10 µM", "setting": "PC-3; PC-3, 10 μM, 72 hours, test PC-3-0524-10 min", "result": 103, "unit": "%"}, {"measurement": "viability at 10 µM", "setting": "PC-3; PC-3, 10 μM, 72 hours, test PC-3-0526-10 min", "result": 132, "unit": "%"}, {"measurement": "viability at 10 µM", "setting": "PC-3; PC-3, 10 μM, 72 hours, test PC-3-0529-10 min", "result": 120, "unit": "%"}, {"measurement": "viability at 10 µM", "setting": "PC-3; PC-3, 10 μM, 72 hours, test PC-3-0531-10 min", "result": 135, "unit": "%"}, {"measurement": "viability at 10 µM", "setting": "PC-3; PC-3, 72 h, 10 μM, average of tests", "result": 122, "unit": "%"}, {"measurement": "viability at 10 µM", "setting": "HCT116-wt; 72 h, average of tests", "result": 110, "unit": "%"}, {"measurement": "viability at 10 µM", "setting": "HCT116-wt; 72 hours, test 0602-30 min", "result": 89, "unit": "%"}, {"measurement": "viability at 10 µM", "setting": "HCT116-wt; 72 hours, test 0605-10 min", "result": 107, "unit": "%"}, {"measurement": "viability at 10 µM", "setting": "HCT116-wt; 72 hours, test 0607-10 min", "result": 132, "unit": "%"}, {"measurement": "viability at 10 µM", "setting": "HCT116-wt; 72 hours, test 0609-10 min", "result": 113, "unit": "%"}, {"measurement": "viability at 10 µM", "setting": "gastric cancer cells", "result": 123, "unit": "%"}, {"measurement": "viability at 10 µM", "setting": "lung cancer cells", "result": 83.1, "unit": "%"}, {"measurement": "viability at 10 µM", "setting": "A375; A-375, 10 μM, 72 hours, test 0602-30 min", "result": 117, "unit": "%"}, {"measurement": "viability at 10 µM", "setting": "A375; A-375, 10 μM, 72 hours, test 0605-10 min", "result": 95.6, "unit": "%"}, {"measurement": "viability at 10 µM", "setting": "A375; A-375, 10 μM, 72 hours, test 0607-10 min", "result": 94.4, "unit": "%"}, {"measurement": "viability at 10 µM", "setting": "A375; A-375, 10 μM, 72 hours, test 0609-10 min", "result": 108, "unit": "%"}, {"measurement": "viability at 10 µM", "setting": "A375; A-375, 72 h, 10 μM, average of tests", "result": 104, "unit": "%"}, {"measurement": "viability at 10 µM", "setting": "HepG2; HepG2, 10 μM, 72 hours, test 0524-20 min", "result": 106, "unit": "%"}, {"measurement": "viability at 10 µM", "setting": "HepG2; HepG2, 10 μM, 72 hours, test 0526-20 min", "result": 133, "unit": "%"}, {"measurement": "viability at 10 µM", "setting": "HepG2; HepG2, 10 μM, 72 hours, test 0529-20 min", "result": 116, "unit": "%"}, {"measurement": "viability at 10 µM", "setting": "HepG2; HepG2, 10 μM, 72 hours, test 0531-20 min", "result": 89.5, "unit": "%"}, {"measurement": "viability at 10 µM", "setting": "HepG2; HepG2, 72 h, 10 μM, average of tests", "result": 111, "unit": "%"}, {"measurement": "inhibitory effect on various cancer cells", "setting": "various cancer cells", "result": "significant inhibitory effect and specificity"}, {"measurement": "viability at 10 µM", "setting": "bladder cancer cells", "result": 90.4, "unit": "%"}, {"measurement": "viability at 10 µM", "setting": "breast cancer cells", "result": 108, "unit": "%"}, {"measurement": "viability at 10 µM", "setting": "H1650; NCI-H1650, 10 μM, 72 hours, test 1-10 min", "result": 86.8, "unit": "%"}, {"measurement": "viability at 10 µM", "setting": "H1650; NCI-H1650, 10 μM, 72 hours, test 2-20 min", "result": 67.5, "unit": "%"}, {"measurement": "viability at 10 µM", "setting": "H1650; NCI-H1650, 10 μM, 72 hours, test 3-20 min", "result": 76.8, "unit": "%"}, {"measurement": "viability at 10 µM", "setting": "H1650; NCI-H1650, 10 μM, 72 hours, test 4-20 min", "result": 75.2, "unit": "%"}, {"measurement": "viability at 10 µM", "setting": "H1650; NCI-H1650, 72 h, 10 μM, Average of tests", "result": 76.5, "unit": "%"}, {"measurement": "viability at 10 µM", "setting": "hepatic cancer cells", "result": 102, "unit": "%"}, {"measurement": "viability at 10 µM", "setting": "AGS; 72 h, average of tests", "result": 28.3, "unit": "%"}, {"measurement": "viability at 10 µM", "setting": "AGS; 72 hours, test 0510-10 min", "result": 26.6, "unit": "%"}, {"measurement": "viability at 10 µM", "setting": "AGS; 72 hours, test 0512-10 min", "result": 20, "unit": "%"}, {"measurement": "viability at 10 µM", "setting": "AGS; 72 hours, test 0515-10 min", "result": 52.3, "unit": "%"}, {"measurement": "viability at 10 µM", "setting": "AGS; 72 hours, test 0517-10 min", "result": 14.5, "unit": "%"}, {"measurement": "viability at 10 µM", "setting": "MDA-MB-231; MDA-MB-231, 10 μM, 72 hours, test 0612-10 min", "result": 92.3, "unit": "%"}, {"measurement": "viability at 10 µM", "setting": "MDA-MB-231; MDA-MB-231, 10 μM, 72 hours, test 0614-10 min", "result": 84.9, "unit": "%"}, {"measurement": "viability at 10 µM", "setting": "MDA-MB-231; MDA-MB-231, 10 μM, 72 hours, test 0616-10 min", "result": 60.8, "unit": "%"}, {"measurement": "viability at 10 µM", "setting": "MDA-MB-231; MDA-MB-231, 10 μM, 72 hours, test 0619-10 min", "result": 92.8, "unit": "%"}, {"measurement": "viability at 10 µM", "setting": "MDA-MB-231; MDA-MB-231, 72 h, 10 μM, average of tests", "result": 82.7, "unit": "%"}, {"measurement": "viability at 10 µM", "setting": "C-33A; 72 h, average of tests", "result": 110, "unit": "%"}, {"measurement": "viability at 10 µM", "setting": "C-33A; 72 hours, test 0524-10 min", "result": 114, "unit": "%"}, {"measurement": "viability at 10 µM", "setting": "C-33A; 72 hours, test 0526-10 min", "result": 119, "unit": "%"}, {"measurement": "viability at 10 µM", "setting": "C-33A; 72 hours, test 0529-10 min", "result": 108, "unit": "%"}, {"measurement": "viability at 10 µM", "setting": "C-33A; 72 hours, test 0531-10 min", "result": 100, "unit": "%"}]}
